Experiments:
[1] = tested on: iAstro (astrocyte control); assay: maximal growth inhibition (yFin) relative to DMSO / staurosporine; higher = more efficacious
Outline: (§1)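 Compounds were delivered by pin tool as a 10-point threefold dilution series with a mean top concentration of 35 μM, in triplicate, to patient-derived pHGG/DIPG cell lines and astrocyte controls growing on 1% Geltrex-coated 384-well plates. Incubation lasted 7 days, or 3 days for iAstro, at 37 °C with 5% CO2. EC50 and maximal response (yFin) come from the three- or four-parameter log-logistic fit with the lowest AICc, applied to pooled, log2-transformed CellTiter-Glo luminescence normalised per plate to % activity between solvent (negative) and positive control wells.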

[2] = tested on: DIPGX7 (H3.3 K27M diffuse intrinsic pontine glioma line); assay: as above
Outline: as §1

[3] = tested on: DIPGX37 (H3.3 K27M diffuse intrinsic pontine glioma line); assay: as above
Outline: as §1

[4] = tested on: HGGX42 (H3.3 G34R paediatric high-grade glioma line); assay: as above
Outline: as §1

[5] = tested on: SUDIPGVI (diffuse intrinsic pontine glioma line); assay: as above
Outline: as §1

[6] = tested on: SUDIPGIV (diffuse intrinsic pontine glioma line); assay: as above
Outline: as §1

[7] = tested on: SUDIPGXIII (diffuse intrinsic pontine glioma line); assay: as above
Outline: as §1

[8] = tested on: DIPGX9 (diffuse intrinsic pontine glioma line); assay: as above
Outline: as §1

[9] = tested on: HGGX2 (paediatric high-grade glioma line); assay: as above
Outline: as §1

[10] = tested on: DIPGX29 (H3.3 K27M diffuse intrinsic pontine glioma line); assay: as above
Outline: as §1

[11] = tested on: HGGX39 (paediatric high-grade glioma line); assay: as above
Outline: as §1

[12] = tested on: SUDIPGXIX (diffuse intrinsic pontine glioma line); assay: as above
Outline: as §1

[13] = tested on: iAstro; assay: area under dose-response curve of % growth inhibition (log2 RLU vs DMSO / staurosporine), 1e-11 to 1e-4 M (% x log10 M); higher = more growth inhibition
Outline: (§2)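 Area under the curve was derived with the trapezoid rule from a fitted log-logistic curve, switching to a smoothing spline if the sigmoid fit failed. It rested on per-plate % activity between solvent and positive controls, calculated from log2-transformed CellTiter-Glo luminescence after 7 days of exposure (3 days for iAstro) at 37 °C, 5% CO2. Patient-derived pHGG/DIPG lines and astrocytes on 1% Geltrex-coated 384-well plates received a 10-point threefold dilution series, mean top concentration 35 μM, in triplicate.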

[14] = tested on: DIPGX7; assay: as above
Outline: as §2

[15] = tested on: DIPGX37; assay: as above
Outline: as §2

[16] = tested on: HGGX42; assay: as above
Outline: as §2

[17] = tested on: SUDIPGVI; assay: as above
Outline: as §2

[18] = tested on: SUDIPGIV; assay: as above
Outline: as §2

[19] = tested on: SUDIPGXVII (diffuse intrinsic pontine glioma line); assay: as above
Outline: as §2

[20] = tested on: SUDIPGXIII; assay: as above
Outline: as §2

[21] = tested on: SUDIPGXXI (diffuse intrinsic pontine glioma line); assay: as above
Outline: as §2

[22] = tested on: HGGX6 (H3.3 G34R paediatric high-grade glioma line); assay: as above
Outline: as §2

[23] = tested on: DIPGX9; assay: as above
Outline: as §2

[24] = tested on: HABS (astrocyte control); assay: as above
Outline: as §2

[25] = tested on: HGGX2; assay: as above
Outline: as §2

[26] = tested on: DIPGX29; assay: as above
Outline: as §2

[27] = tested on: HGGX39; assay: as above
Outline: as §2

[28] = tested on: SUDIPGXIX; assay: as above
Outline: as §2

[29] = tested on: SUDIPGXXI; assay: maximal growth inhibition (yFin) relative to DMSO / staurosporine; higher = more efficacious
Outline: as §1

| Compound | maximal growth inhibition [1] | maximal growth inhibition [2] | maximal growth inhibition [3] | maximal growth inhibition [4] | maximal growth inhibition [5] | maximal growth inhibition [6] | maximal growth inhibition [7] | maximal growth inhibition [8] | maximal growth inhibition [9] | maximal growth inhibition [10] | maximal growth inhibition [11] | maximal growth inhibition [12] | area under dose-response curve [13] | area under dose-response curve [14] | area under dose-response curve [15] | area under dose-response curve [16] | area under dose-response curve [17] | area under dose-response curve [18] | area under dose-response curve [19] | area under dose-response curve [20] | area under dose-response curve [21] | area under dose-response curve [22] | area under dose-response curve [23] | area under dose-response curve [24] | area under dose-response curve [25] | area under dose-response curve [26] | area under dose-response curve [27] | area under dose-response curve [28] | maximal growth inhibition [29] |
| --- | --- | --- | --- | --- | --- | --- | --- | --- | --- | --- | --- | --- | --- | --- | --- | --- | --- | --- | --- | --- | --- | --- | --- | --- | --- | --- | --- | --- | --- |
| CC(C)C[C@H](NC(=O)[C@H](CCc1ccccc1)NC(=O)CN1CCOCC1)C(=O)N[C@@H](Cc1ccccc1)C(=O)N[C@@H](CC(C)C)C(=O)[C@@]1(C)CO1 [CARFILZOMIB] | 87.1% | 92% | 98.9% | 77% | 95.3% | 98.6% | 105% | 115% | 97.2% | 96.2% | 107% | 116% | 379 | 303 | 266 | 213 | 259 | 320 | 249 | 148 | 649 | 217 | 343 | 280 | 344 | 171 | 239 | 294 |  |
| Cc1noc2c1-c1ccccc1C(c1ccc(Cl)cc1)=N[C@H]2CC(N)=O [CPI-0610] | 39% | 116% |  | 80.1% | 106% | 75.1% |  | 113% | 69.1% | 90.8% | 109% | 127% | 67 | 105 | 81.3 | 110 | 121 | 114 | 88.9 | 13.5 | 251 | 59.4 | 194 | 97.5 | 98.6 | 99.5 | 110 | 156 | 116% |
| C=CCn1c(=O)c2cnc(Nc3ccc(N4CCN(C)CC4)cc3)nc2n1-c1cccc(C(C)(C)O)n1 [MK-1775] | 36.6% | 25% | 22.2% | 34.5% |  | 46.7% |  | 41.4% | 31% | 39.2% | 43.8% | 37.7% | 71.1 | 58.4 | 48.9 | 53.5 | 27.9 | 96 | 39.4 | 15 | 190 | 37.6 | 60 | 35.1 | 83 | 114 | 46.4 | 73.8 | 91.8% |
| COc1ncc(-c2ccc3nccc(-c4ccnnc4)c3c2)cc1NS(=O)(=O)c1ccc(F)cc1F [OMIPALISIB] | 41.1% |  | 116% | 99.4% | 112% | 110% | 108% | 104% | 105% | 105% | 115% | 108% | 64 | 248 | 290 | 237 | 257 | 245 | 251 | 225 | 366 | 193 | 366 | 262 | 263 | 219 | 224 | 326 | 118% |
| CCOc1cc(C(C)(C)C)ccc1C1=N[C@@](C)(c2ccc(Cl)cc2)[C@@](C)(c2ccc(Cl)cc2)N1C(=O)N1CCN(CCCS(C)(=O)=O)CC1 [RG7112] | 82.6% | 70.5% |  | 94.2% | 35.2% | 55.8% | 61.6% | 109% | 101% | 93.2% | 96.2% | 113% | 69.8 | 73.2 | 169 | 76 | 30.5 | 47.8 | 91.7 | 77.5 | 288 | 61.6 | 204 | 176 | 77.8 | 85.4 | 82.1 | 204 | 115% |
| C=CCNC1=C2C[C@@H](C)C[C@H](OC)[C@H](O)[C@@H](C)/C=C(\C)[C@H](OC(N)=O)[C@@H](OC)/C=C\C=C(/C)C(=O)NC(=CC1=O)C2=O [TANESPIMYCIN] | 39.3% |  | 104% | 50.5% | 39.8% | 72.4% | 73.1% | 108% | 84.8% | 70% | 97.3% | 92.1% | 50.9 | 89.8 | 312 | 103 | 42.2 | 138 | 89.8 | 80.1 | 223 | 59.6 | 309 | 161 | 83 | 132 | 242 | 214 | 122% |

— the supplement of paper PMC8253809
